Results reported in patent US20250073249A1, “STEROID COMPOUND, AND PREPARATION METHOD THEREFOR AND USE THEREOF” (SHANGHAI INSTITUTE OF MATERIA MEDICA, CHINESE ACADEMY OF …, priority 2022, published 2025).

Legend:
Assay type in all cases: cell-based
AR(F876L) = molecular target: T1, AR(F876L) (Homo sapiens, UniProt P10275, F877L); experiment: Mutant AR antagonistic activity test, F876L (reporter gene in HEK293 cells); settings: DHT 10 nM, 24 hours, read-out: F876L IC50(nM) 2nd gen AR antagonist resistant mutation
T1 construct: expressed in transfected cells; host or cells: HEK293
T1 sequence (P10275 1-920 F877L): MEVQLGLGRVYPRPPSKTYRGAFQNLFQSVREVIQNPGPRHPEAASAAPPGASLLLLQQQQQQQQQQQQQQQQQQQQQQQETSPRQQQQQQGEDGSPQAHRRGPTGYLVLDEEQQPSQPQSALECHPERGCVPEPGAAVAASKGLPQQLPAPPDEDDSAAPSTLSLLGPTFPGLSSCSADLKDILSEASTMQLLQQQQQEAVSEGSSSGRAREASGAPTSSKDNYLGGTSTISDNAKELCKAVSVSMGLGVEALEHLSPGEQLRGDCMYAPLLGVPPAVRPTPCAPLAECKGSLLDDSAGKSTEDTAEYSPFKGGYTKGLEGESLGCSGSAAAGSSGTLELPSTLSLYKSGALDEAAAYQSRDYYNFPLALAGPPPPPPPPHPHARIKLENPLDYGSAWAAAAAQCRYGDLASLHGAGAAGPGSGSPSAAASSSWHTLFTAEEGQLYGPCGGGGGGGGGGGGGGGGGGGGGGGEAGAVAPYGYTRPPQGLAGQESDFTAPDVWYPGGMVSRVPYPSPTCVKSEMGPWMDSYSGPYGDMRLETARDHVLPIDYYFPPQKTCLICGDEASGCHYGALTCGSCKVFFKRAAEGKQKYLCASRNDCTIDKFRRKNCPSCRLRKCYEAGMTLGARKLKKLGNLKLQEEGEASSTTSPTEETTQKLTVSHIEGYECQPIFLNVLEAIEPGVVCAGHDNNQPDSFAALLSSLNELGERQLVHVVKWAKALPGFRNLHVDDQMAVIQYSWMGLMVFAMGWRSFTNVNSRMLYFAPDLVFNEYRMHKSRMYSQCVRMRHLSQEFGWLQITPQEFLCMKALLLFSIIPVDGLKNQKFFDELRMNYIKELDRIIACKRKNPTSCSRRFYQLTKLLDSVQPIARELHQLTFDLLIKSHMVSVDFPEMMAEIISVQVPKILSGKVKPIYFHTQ
Procedure: HEK293 cells were cultured in DMEM supplemented with 10% FBS and 1% GlutaMax at 37° C. with 5% CO2. The day before transfection, the medium was changed to DMEM containing 10% charcoal-stripped FBS and 1% GlutaMax. […] The cell suspension was diluted with cell seeding solution, and the transfection reagent was added to achieve 500,000 cells/mL. Subsequently, 90 μL of cell suspension was seeded into each well of the assay plate. The next day, compounds were prepared: starting from 8 mM, 3-fold serial dilutions were performed in DMSO for a total of 8 points, then 500 nL was transferred to the compound plate using Echo. The compounds were then diluted with 40 μL of medium to 10× final concentration, and 10 μL was transferred to the cell plate and incubated at 37° C. for 30 minutes. Subsequently, 10 nL of DHT at a final concentration of 10 nM was transferred to each well of the assay plate using TECAN. After 24 hours of incubation, 100 μL of Steady-Glo was added to the assay plate and read on an Envision reader. Data were determined and analyzed using GraphPad Prism.

TMPRSS2 = TMPRSS2 mRNA expression in A549 cells (qPCR)
ACE2 = ACE2 mRNA expression in A549 cells (qPCR)
[1] = 10 μM, 1 nM DHT, 48 h, Blank = 1

Compound | IC50 (AR(F876L)) | Expression of TMPRSS2 protein, in words (TMPRSS2) | TMPRSS2 mRNA level (TMPRSS2; [1]) | Expression of ACE2 protein, in words (ACE2) | ACE2 mRNA level (ACE2; [1])
Cc1cn(C2=CCC3C4CC=C5C[C@@H](NC(=O)c6ccncc6)CC[C@]5(C)C4CC[C@]23C)cn1 (stereo partly drawn) [Compound 14, N-((3S,10R,13S)-10,13-dimethyl-17-(4-methyl-1H-imidazol-1-yl)-2,3,4,7,8,9,10,11,12,13,14,15-dodecahydro-1H-cyclopenta[a]phenanthren-3-yl)isonicotinamide] | 268 nM |  |  |  | 
Cc1cn(C2=CCC3C4CC=C5C[C@@H](NC(=O)c6ccc(F)cc6F)CC[C@]5(C)C4CC[C@]23C)cn1 (stereo partly drawn) [Compound 37, N-((3S,10R,13S)-17-(4-methyl-1H-imidazol-1-yl)-10,13-dimethyl-2,3,4,7,8,9,10,11,12,13,14,15-dodecahydro-1H-cyclopenta[a]phenanthren-3-yl)-2,4-difluorobenzamide] | 273 nM |  |  |  | 
Cc1cn(C2=CCC3C4CC=C5C[C@@H](NC(=O)c6ccc(F)cc6)CC[C@]5(C)C4CC[C@]23C)cn1 (stereo partly drawn) [Compound 33, N-((3S,10R,13S)-17-(4-methyl-1H-imidazol-1-yl)-10,13-dimethyl-2,3,4,7,8,9,10,11,12,13,14,15-dodecahydro-1H-cyclopenta[a]phenanthren-3-yl)-4-fluorobenzamide] | 390 nM |  |  |  | 
Cc1cn(C2=CCC3C4CC=C5C[C@@H](NC(=O)c6ccc(S(C)(=O)=O)cc6)CC[C@]5(C)C4CC[C@]23C)cn1 (stereo partly drawn) [Compound 35, N-((3S,10R,13S)-17-(4-methyl-1H-imidazol-1-yl)-10,13-dimethyl-2,3,4,7,8,9,10,11,12,13,14,15-dodecahydro-1H-cyclopenta[a]phenanthren-3-yl)-4-(methylsulfonyl)benzamide] | 326 nM | significantly downregulate | 0.394 | significantly downregulate | 0.102
